# Measured values reported in patent publication US20110159304A1, “ANTI-SULPHATE REDUCING BACTERIA COMPOSITION COMPRISING 1,2-BENZISOTHIAZOL-3(2H)-ONE, IRGASAN, BENZYL-2-BROMOACETATE, 2,2-DIBROMO-2-CYANOACETAMIDE, AND 2-BROMO-2-NITROPROPAN-1,3-DIOL” (KOREA GAS CORPORATION, priority 2009, published 2011).
# Read-outs that look alike come from different tables or passages of the source.
# Legend:
# Type in all cases: cell-based
# [1] = tested on: Desulfovibrio desulfuricans KCTC 5786; assay: Antibacterial activity evaluation, paper disk clear zone and MIC; settings: for zone of inhibition at 0.01 % / zone of inhibition at 0.1 % / zone of inhibition at 1 % / zone of inhibition at 0.001 %: Desulfovibrio desulfuricans; for antibacterial activity relative to other commercially used antibacterial agents: compared by MIC with 1-hydroxypyridine-2-tionzinc, 2-methyl-isothiazolin-3-one and the like; for MIC minimum inhibitory concentration: paper disk test, concentrations 1.0-0.001%, 37° C.; for zone of inhibition at 0.001 %: antibacterial agent concentration 0.001%
# Protocol: Desulfovibrio desulfuricans KCTC 5786 was used as a test sulphate reducing bacteria strain.
# The all materials used in the test, disk paper, medium and so on, were sterilized for 15 min at 121° C. Bacteria's culture and antibacterial activity test were performed in an anaerobic chamber (Anaerobic System, Form a Sci; condition maintaining not more than 5 ppm of oxygen concentration).
# After culturing the test strain for not less than 3 days, the volume of the culture was adjusted to 10^5-7/mL to prepare for plating it on Desulfovibrio medium, and the test compounds were resolved in a suitable solvent for use (ethanol for lipid soluble compounds, and distilled water for water soluble compounds).
# (§1) The experiment proceeded with varying the concentration of the compounds used in the experiment to 1.0%, 0.1%, 0.01%, and 0.001%. The 8 mm of a paper disk was placed on the plate prepared by plating the culture, and were inoculated with 50 μl of various concentrations of the compound. After culturing the strain for 24, and 48 hrs at 37° C., the clear zone (mm) representing antibacterial activity was measured and Minimum Inhibitory Concentration (MIC) was determined.
# [2] = tested on: Desulfovibrio desulfuricans KCTC 5786; assay: Antibacterial activity test after thermal shock (paper disk clear zone); settings: for clear zone after thermal shock / clear zone before thermal shock: 0.1% condition; for clear zone after thermal shock: after thermal shock (180° C., 1 hr); for antibacterial activity after thermal shock: after 180° C., 1 hour, 0.1%
# Protocol: as §1
# Applying the heat shrinkable sheet using flames of torch, the temperature increased to about 150° C. and the exposure time was around 15 minutes. […] After 1,2-benzisothiazol-3(2H)-one, irgasan, benzyl-2-bromoacetate, 2,2-dibromo-2-cyanoacetamide, and 2-bromo-2-nitropropan-1,3-diol were exposed to higher temperature (180° C.) for a longer time (1 hour), the antibacterial activity was measured at a concentration of 0.1% using the same method as Experiment Example 1 (see, Table 3, FIGS. 3a to 3e).
# [3] = tested on: Desulfovibrio desulfuricans KCTC 5786; assay: Antibacterial activity test of antibacterial agent-added coating material (adhesive, primer)
# Protocol: as §1
# Test equipment and materials, and test condition are as follows: • Coating material type: adhesive (Canusa), primer (Polyken) • Mixed antibacterial agent's concentration: control, 0.5, 1.0, 2.0, 5.0 wt %
# As an adhesive specimen, the components were mixed by manual stirring in an oven at 150° C., and then an 1 mm-thick adhesive sheet was fabricated. As a primer specimen, a 0.2 mm-thick sheet having a primer dry film was fabricated. The specimen was diced into a size of 15 mm×15 mm, and after UV sterilization, the antibacterial activity of the specimen was assessed using the same environment and method as in the test method of Experiment Example 1 described above.
# [4] = KCTC5786, read-out: CZ (mm) clear zone
# [5] = primer (Polyken) with 0.5 wt % antibacterial agent
# [6] = primer (Polyken) with 1.0 wt % antibacterial agent
# [7] = primer (Polyken) with 2.0 wt % antibacterial agent
# [8] = primer (Polyken) with 5.0 wt % antibacterial agent
# [9] = KCTC5786, antibacterial agent concentration 0.1%, 8 mm paper disk, 50 μl, — = negative, read-out: CZ (mm) clear zone
# [10] = KCTC5786, antibacterial agent concentration 1%, 8 mm paper disk, 50 μl, — = negative, read-out: CZ (mm) clear zone
# [11] = KCTC5786, 8 mm paper disk, 50 μl, — = negative, read-out: CZ (mm) clear zone
# [12] = KCTC5786, antibacterial agent concentration 0.01%, 8 mm paper disk, 50 μl, — = negative, read-out: CZ (mm) clear zone
# [13] = adhesive (Canusa) with 0.5 wt % antibacterial agent
# [14] = adhesive (Canusa) with 1.0 wt % antibacterial agent
# [15] = adhesive (Canusa) with 2.0 wt % antibacterial agent
# [16] = adhesive (Canusa) with 5.0 wt % antibacterial agent
# [17] = antibacterial agent concentration 0.1%, 8 mm paper disk, 50 μl, — = negative
# [18] = antibacterial agent concentration 1%, 8 mm paper disk, 50 μl, — = negative
Compound,antibacterial activity relative to other commercially used antibacterial agents [1] [times],clear zone after thermal shock [2] [mm],clear zone before thermal shock [2] [mm],antibacterial activity after thermal shock [2],"Clear zone (mm), primer [3, 7]","Clear zone (mm), primer [3, 8]","zone of inhibition at 0.1 % [1, 9] [mm]","zone of inhibition at 1 % [1, 10] [mm]",MIC minimum inhibitory concentration [1] [%],other results
"Oc1cc(Cl)ccc1Oc1ccc(Cl)cc1Cl [Irgasan, irgasan]",10,13,13,maintained the excellent antibacterial activity,1.5 mm,6 mm,,,,"zone of inhibition at 0.01 % [1, 4]: 5 mm; zone of inhibition at 0.1 % [1, 4]: 11 mm; zone of inhibition at 1 % [1, 4]: 14 mm; Clear zone (mm), primer [3, 5]: 3.5 mm; Clear zone (mm), primer [3, 6]: 1.5 mm"
"N#Cc1c(Cl)c(Cl)c(Cl)c(C#N)c1Cl [Chlorothalonil, reference compound]",,,,,,,2,4,0.1,
"c1ccc2[nH]c(-c3cscn3)nc2c1 [Thiabendazole minimum 99%, Thiabendazole, reference compound]",,,,,,,,,≥ 1,
"O=c1[nH]sc2ccccc12 [1,2-benzisothiazol-3(2H)-one]",10,14.5,16,maintained the excellent antibacterial activity,8.5 mm,17.5 mm,6.5,13.5,,"zone of inhibition at 0.001 % [1, 11]: 1 mm; zone of inhibition at 0.01 % [1, 12]: 2.5 mm; Clear zone (mm), adhesive [3, 13]: 15 mm; Clear zone (mm), adhesive [3, 14]: 18 mm; Clear zone (mm), adhesive [3, 15]: 19 mm; Clear zone (mm), adhesive [3, 16]: 25 mm; Clear zone (mm), primer [3, 6]: 7.5 mm"
"O=CCCCC=O [Glutar-di-aldehyde, 50 wt %, Glutar-di-aldehyde, reference compound]",,,,,,,,,0.1,"CZ (mm) clear zone [1, 17]: 6 mm; CZ (mm) clear zone [1, 18]: 12 mm"
"Cc1cc(O)cc(C)c1Cl [4-chloro-3,5-dimethylphenol, reference compound]",,,,,,,1,16,0.1,
"Molybdenum (VI) oxide [Molybdenum (VI) oxide 99.99%, reference compound]",,,,,,,,,1.0,"CZ (mm) clear zone [1, 18]: 6 mm"
"O=[N+]([O-])C(Br)(CO)CO [2-bromo-2-nitropropan-1,3-diol]",10,25,20,maintained the excellent antibacterial activity,2 mm,16.5 mm,8,18.5,,"zone of inhibition at 0.01 % [1, 12]: 1.5 mm; Clear zone (mm), adhesive [3, 13]: 5.5 mm; Clear zone (mm), adhesive [3, 14]: 10.5 mm; Clear zone (mm), adhesive [3, 15]: 13 mm; Clear zone (mm), adhesive [3, 16]: 14.5 mm; Clear zone (mm), primer [3, 5]: 9 mm; Clear zone (mm), primer [3, 6]: 9 mm"
"Cn1sccc1=O [2-methyl-4-isothiazoline-3-one, reference compound]",,,,,,,,,0.1,"zone of inhibition at 0.1 % [1, 4]: 5 mm; zone of inhibition at 1 % [1, 4]: 12 mm"
"[O-]n1ccccc1=S.[O-]n1ccccc1=S.[Zn+2] [1-hydroxypyridine-2-thionezinc, reference compound]",,,,,,,,,0.1,"CZ (mm) clear zone [1, 17]: 1 mm; CZ (mm) clear zone [1, 18]: 3.5 mm"
"O=C(Nc1ccc(Cl)cc1)Nc1ccc(Cl)c(Cl)c1 [3,4,4-trichloro-Carbanilide, reference compound]",,,,,,,,,≥ 1,
"CCCCNC(=O)OCC#CI [3-iodo-2-propynyl n-butylcarbamate, 97%, 3-iodo-2-propynyl n-butylcarbamate, reference compound]",,,,,,,3,5.5,0.1,
"N#CC(Br)(Br)C(N)=O [2,2-dibromo-2-cyanoacetamide]",10,18.5,39.5,maintained the excellent antibacterial activity,1 mm,6.5 mm,≥ 39,≥ 39,,"zone of inhibition at 0.001 % [1, 11]: ≥ 39 mm; zone of inhibition at 0.01 % [1, 12]: ≥ 39 mm; Clear zone (mm), adhesive [3, 13]: 2 mm; Clear zone (mm), adhesive [3, 14]: 2.5 mm; Clear zone (mm), adhesive [3, 15]: ≧26 mm; Clear zone (mm), adhesive [3, 16]: ≧30.5 mm; Clear zone (mm), primer [3, 5]: 1.5 mm"
"O=C(CBr)OCc1ccccc1 [Benzyl-2-bromoacetate, benzyl-2-bromoacetate]",10,36,39,maintained the excellent antibacterial activity,≧34 mm,≧39 mm,≥ 39,≥ 39,,"zone of inhibition at 0.001 % [1, 11]: 35 mm; zone of inhibition at 0.01 % [1, 12]: ≥ 39 mm; Clear zone (mm), adhesive [3, 13]: 24 mm; Clear zone (mm), adhesive [3, 14]: 30 mm; Clear zone (mm), adhesive [3, 15]: 34 mm; Clear zone (mm), adhesive [3, 16]: ≧39 mm; Clear zone (mm), primer [3, 5]: ≧26 mm; Clear zone (mm), primer [3, 6]: ≧32 mm"
